How the values were obtained:
[1] = test system: influenza A/WSN/33; assay: Lung homogenate virus titers; assay type: in vivo, mouse
Protocol: (§1) The pharmacologic blockade of CD73 with APCP (5′-(α,β-methylene)diphosphate) reduces BALF adenosine levels and thereby ameliorates acute lung injury in influenza-infected mice. We investigated effects of daily gavage with APCP (20 mg/kg, in 200 μl saline) on body weight, arterial O2 saturation (SpO2; measured in conscious mice with the MouseOx pulse oximetry system) and survival in 2 groups of 10 individually-marked influenza-infected mice, and compared these animals to mock-infected and untreated influenza-infected mice. […] (FIG. 4C). In fact, 20% of APCP-treated mice survived infection, whereas all untreated mice died. Importantly, APCP gavage had no effect on lung homogenate virus titers at 2 d.p.i. (not shown).
(§2) A1-AdoR activation is pro-inflammatory in influenza infection and pharmacologic blockade of A1-AdoR with the prototypical A1-AdoR antagonist DPCPX (8-Cyclopentyl-1,3-diproopylxanthine) ameliorates adenosine-induced acute lung injury in influenza-infected mice. Influenza-infected mice were treated with DPCPX (1 mg/kg/day), administered by implanted osmotic minipump (Alzet). The effects of this A1-AdoR antagonist on body weight, arterial O2 saturation (measured by pulse oximetry) and survival were investigated in 2 groups of 10 individually-marked influenza-infected mice. For some outcome measures, we also evaluated the effect of daily administration of the A2b-AdoR antagonist enprofylline (4 mg/kg I.P., in 100 μl 10% ethanol in saline; EMD Biosciences), to determine whether A2b-AdoR blockade also modulates influenza outcomes. […] 10% of DPCPX-treated mice survived infection. […] (not shown). […] (not shown).

[2] = test system: influenza-infected mice; assay: Influenza-induced loss of body weight in treated infected mice; assay type: in vivo, mouse
Protocol: as §1, §2
(§3) Mice were infected intranasally with 50 μl influenza A/WSN/33 under 3% isoflurane anesthesia. Mock-infected animals received 50 μl of virus diluent (PBS with 0.1% BSA). In some experiments, mice were individually marked and weighed daily.

[3] = test system: influenza-infected mice; assay: Mortality / survival of treated influenza-infected mice; assay type: in vivo, mouse
Protocol: as §1, §2, §3

[4] = test system: influenza-infected mice; assay: Arterial O2 saturation (SpO2) by MouseOx pulse oximetry, peripheral hypoxemia; assay type: in vivo, mouse
Protocol: as §1, with “Importantly, APCP gavage had no effect on lung homogenate virus titers at 2 d.p.i. (not shown).” left out
A1-AdoR activation is pro-inflammatory in influenza infection and pharmacologic blockade of A1-AdoR with the prototypical A1-AdoR antagonist DPCPX (8-Cyclopentyl-1,3-diproopylxanthine) ameliorates adenosine-induced acute lung injury in influenza-infected mice. […] The effects of this A1-AdoR antagonist on body weight, arterial O2 saturation (measured by pulse oximetry) and survival were investigated in 2 groups of 10 individually-marked influenza-infected mice. For some outcome measures, we also evaluated the effect of daily administration of the A2b-AdoR antagonist enprofylline (4 mg/kg I.P., in 100 μl 10% ethanol in saline; EMD Biosciences), to determine whether A2b-AdoR blockade also modulates influenza outcomes. […]

[5] = test system: BALB/c mice infected with influenza A/WSN/33; assay: Heart rate (bradycardia) by pulse oximetry in influenza-infected mice; assay type: in vivo; details: 6 days infection, 10,000 PFU/mouse; systemic treatment
[6] = test system: influenza-infected mice; assay: Lung water content (wet:dry weight ratio); assay type: in vivo, mouse; details: 6 d.p.i.
Protocol: as §2
The right lung was removed weighed, dried in an oven at 55° C. for 5 days, then reweighed. Wet-to-dry weight ratio provides an index of intrapulmonary fluid accumulation.

[7] = test system: influenza-infected mice; assay: Total BAL cell counts (pulmonary inflammation); assay type: in vivo, mouse; details: 6 d.p.i.; 1 mg/kg/day by osmotic minipump
Protocol: as §2
Following removal of the left lung, the right lung was lavaged in situ with 0.5 ml of sterile saline. […] Numbers of viable alveolar macrophages, lymphocytes, and polymorphonuclear cells were calculated from total leukocytes (counted using a hemocytometer with 0.4% trypan blue exclusion to assess viability) and differential counts of Diff-Quik-stained cytocentrifuge preparations. […] BAL protein and LDH content were determined by standard colorimetric assays.

[8] = test system: influenza H1N1 virus (A/WSN/33) infected BALB/c mice; assay: Alveolar fluid clearance in influenza-infected mice (compound added to fluid clearance instillate); assay type: in vivo, mouse; details: 2 d.p.i., 10 μM in fluid clearance instillate, 30-min ventilation period
[9] = 1 mg/kg/day by implanted osmotic minipump

Question: For 5′-(α,β-methylene)diphosphate [APCP], which “lung homogenate virus titers” value ([1]; 2 d.p.i., daily gavage 20 mg/kg) is on record?
Answer: no effect

Question: What about the “influenza-induced loss of body weight” value ([2]; daily gavage 20 mg/kg in 200 μl saline) of the same molecule?
Answer: no significant effect

Question: And the “treated mice that survived infection” value ([3]; daily gavage 20 mg/kg, all untreated mice died)?
Answer: 20%

Question: What about the “mortality (delay)” value ([3]; daily gavage 20 mg/kg, vs untreated infected mice) of the same molecule?
Answer: significantly delayed mortality

Question: What about the “onset of peripheral hypoxemia (SpO2)” value ([4]; daily gavage 20 mg/kg, conscious mice) of the same molecule?
Answer: significantly delayed

Question: Which “influenza-induced bradycardia (heart rate)” value [5] does the source give for `CCCn1c(=O)c2[nH]c(C3CCCC3)nc2n(CCC)c1=O` [DPCPX, 8-cyclopentyl-1,3-dipropylxanthine] here?
Answer: reversed

Question: What about the “lung homogenate virus titers” value ([1]; 6 d.p.i., 1 mg/kg/day by osmotic minipump) of the same molecule?
Answer: Neither DPCPX nor enprofylline had any effect

Question: What about the “lung water content (wet:dry weight ratio)” value ([6]; 1 mg/kg/day by osmotic minipump) of the same molecule?
Answer: significantly reduced

Question: What about the influenza-induced weight loss [2, 9] of the same molecule?
Answer: neither DPCPX nor enprofylline had any significant effect

Question: What about the “total BAL cell counts” value [7] of the same molecule?
Answer: significant reduction

Question: And the “mortality (delay)” value [3, 9]?
Answer: significantly delayed mortality

Question: What about the “treated mice that survived infection” value [3, 9] of the same molecule?
Answer: 10%

Question: And the “onset of peripheral hypoxemia” value [4, 9]?
Answer: significantly delayed

Question: Which “WSN virus-induced suppression of alveolar fluid clearance” value [8] does the source give for `N#CC(=C(N)Sc1ccccc1N)C(C#N)=C(N)Sc1ccccc1N` [U0126, 1,4-diamino-2,3-dicyano-1,4-bis[2-aminophenylthio] butadiene] here?
Answer: reversed

Question: For `CCCn1c(=O)[nH]c(=O)c2[nH]cnc21` [enprofylline], which “lung homogenate virus titers” value ([1]; 6 d.p.i., daily 4 mg/kg I.P.) is on record?
Answer: Neither DPCPX nor enprofylline had any effect

Question: And the “lung water content (wet:dry weight ratio)” value ([6]; daily 4 mg/kg I.P.)?
Answer: no such effect

Question: And the influenza-induced weight loss ([2]; daily 4 mg/kg I.P. in 100 μl 10% ethanol in saline)?
Answer: neither DPCPX nor enprofylline had any significant effect

Question: `CNCCC(Oc1ccc(C(F)(F)F)cc1)c1ccccc1` (stereo not drawn) [fluoxetine] was tested. Which “WSN virus-induced suppression of alveolar fluid clearance” value [8] did it give?
Answer: reversed

— patent US20130123345A1, “METHOD OF TREATING A VIRAL INFECTION D[…] […] ADENOSINE RECEPTOR PATHWAY” (THE OHIO STATE UNIVERSITY, priority 2010, published 2013)
